The results in this text go back to patent EP4603105A1, “PHARMACEUTICAL COMPOSITION CONTAINING CYCLIC COMPOUND HAVING SELECTIVE KRAS INHIBITORY EFFECT AGAINST HRAS AND NRAS” (CHUGAI SEIYAKU KABUSHIKI KAISHA, priority 2022, dated 2024).

The structures appear in SMILES notation.

The target of assay [1] is HRAS wild-type protein (Homo sapiens, UniProt P01112). Put plainly: Binding to HRAS by surface plasmon resonance (SPR), KD and KD ratio to KRAS. The conditions noted are these: ratio of KD value for HRAS wild-type protein to KD value for KRAS (SPR). In short, it runs like this:
(§1)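 Compound binding is evaluated by SPR single-cycle kinetics, with concentrations added intermittently from low to high for 75 s each. Target surfaces carry GDP-loaded biotinylated Avi-RAS at about 100–300 RU, regenerated after each cycle; temperature 30°C. A 1:1 binding model gives KD.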

Assay [2] deals with human lung cancer strain NCI-H441. It is filed as cell-based. In short, it runs like this:
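Proliferation was scored by […] measured after the reagent was added to cultures kept at 37°C in 5% carbon dioxide.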

For assay [3], the target named is GDP-bound NRAS wild-type protein (Homo sapiens, UniProt P01111). The assay is described as follows: Binding to NRAS by surface plasmon resonance (SPR), KD and KD ratio to KRAS. The conditions noted are these: ratio of KD value for GDP-bound NRAS wild-type protein to KD value for KRAS (SPR). In short, it runs like this:
as §1
For orientation: In SPR one partner is held on a chip, and binding of the other changes the refractive index at the surface.

Sequence of HRAS wild-type protein (P01112 whole entry): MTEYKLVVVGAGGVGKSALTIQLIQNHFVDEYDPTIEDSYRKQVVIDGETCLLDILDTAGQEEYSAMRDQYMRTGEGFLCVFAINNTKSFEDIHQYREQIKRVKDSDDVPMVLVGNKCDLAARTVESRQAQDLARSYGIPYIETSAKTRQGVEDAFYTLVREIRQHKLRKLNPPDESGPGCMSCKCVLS
Sequence of GDP-bound NRAS wild-type protein (P01111 whole entry): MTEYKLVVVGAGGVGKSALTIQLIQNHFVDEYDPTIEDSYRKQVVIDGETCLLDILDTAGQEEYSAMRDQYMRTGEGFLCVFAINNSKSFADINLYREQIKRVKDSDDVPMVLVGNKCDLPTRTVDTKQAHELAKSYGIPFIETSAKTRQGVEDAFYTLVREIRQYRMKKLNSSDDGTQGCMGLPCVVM

As for `CC[C@H](C)[C@@H]1NC(=O)[C@H](CC2CC2)N(C)C(=O)C[C@@H](C(=O)N2CCCC2)N(C)C(=O)[C@H](C2CCCC2)N(C)C(=O)C2(CCCC2)NC(=O)[C@@H]2C[C@@H](C(F)(F)F)CN2C(=O)[C@H](CCc2cc(F)c(C(F)(F)F)c(F)c2)NC(=O)CN(C)C(=O)[C@H](Cc2ccc(C(F)(F)F)cc2)N2CC/C=C\C[C@@H](C2=O)N(C)C(=O)CN(C)C1=O` [PP1506], in assay [1], the “HRAS /KRAS” value was “A (a compound having 10 or more and less than 20 is denoted as A)”. Moreover, half-maximal inhibition in assay [2] (IC50) was put at 73.4 nM. The “NRAS /KRAS” value in assay [3] was “AA (a compound having 20 or more is denoted as AA)”.

In the case of `CC[C@H](C)[C@@H]1NC(=O)[C@H](CC2CC2)N(C)C(=O)C[C@@H](C(=O)N(C)C)N(C)C(=O)[C@H](C2CCCC2)N(C)C(=O)C2(CC(C)(C)C2)NC(=O)[C@@H]2C[C@@H](C(F)(F)F)CN2C(=O)[C@H](CCc2cc(F)c(C(F)(F)F)c(F)c2)NC(=O)CN(C)C(=O)[C@H](Cc2ccc(F)cc2)N2CC/C=C\C[C@@H](C2=O)N(C)C(=O)CN(C)C1=O` [PP1507], the “HRAS /KRAS” value in assay [1] was “A (a compound having 10 or more and less than 20 is denoted as A)”. Also, in assay [2], half-maximal inhibition (IC50) was put at 16.2 nM. Besides, the “NRAS /KRAS” value in assay [3] is “A (a compound having 10 or more and less than 20 is denoted as A)”.

Take `CC[C@H](C)[C@@H]1NC(=O)[C@H](CC2CC2)N(C)C(=O)C[C@@H](C(=O)N2CCCC2)N(C)C(=O)[C@H](C2CCCC2)N(C)C(=O)C2(CCC2)NC(=O)[C@@H]2C[C@H](C)CN2C(=O)[C@H](CCc2cc(F)c(C(F)(F)F)c(F)c2)NC(=O)CN(C)C(=O)[C@H](Cc2ccc(C(F)(F)F)cc2)N2CC/C=C\C[C@@H](C2=O)N(C)C(=O)CN(C)C1=O` [PP1510]: in assay [1], the “HRAS /KRAS” value was “A (a compound having 10 or more and less than 20 is denoted as A)”. For the same compound, the IC50 in assay [2] was determined as 34.5 nM. In assay [3], the “NRAS /KRAS” value is listed as “AA (a compound having 20 or more is denoted as AA)”.

`CC[C@H](C)[C@@H]1NC(=O)[C@H](CC2CC2)N(C)C(=O)C[C@@H](C(=O)N(C)C)N(C)C(=O)[C@H](C2CCCC2)N(C)C(=O)C2(CCCC2)NC(=O)[C@@H]2C[C@H](C)CN2C(=O)[C@H](CCc2cc(F)c(C(F)(F)F)c(F)c2)NC(=O)CN(C)C(=O)[C@H](Cc2ccc(C(F)(F)F)cc2)N2CC/C=C\C[C@@H](C2=O)N(C)C(=O)CN(C)C1=O` [PP1511]: the “HRAS /KRAS” value in assay [1] was “A (a compound having 10 or more and less than 20 is denoted as A)”. The IC50 in assay [2] was 13.7 nM. In addition, the “NRAS /KRAS” value in assay [3] is on record as “AA (a compound having 20 or more is denoted as AA)”.

`CC[C@H](C)[C@@H]1NC(=O)[C@H](CC2CC2)N(C)C(=O)C[C@@H](C(=O)N2CCCC2)N(C)C(=O)[C@H](C2CCCC2)N(C)C(=O)C2(CCC2)NC(=O)[C@@H]2CC(F)(F)CN2C(=O)[C@H](CCc2cc(F)c(C(F)(F)F)c(F)c2)NC(=O)CN(C)C(=O)[C@H](Cc2ccc(C(F)(F)F)cc2)N2CC/C=C\C[C@@H](C2=O)N(C)C(=O)CN(C)C1=O` [PP1512]: the “HRAS /KRAS” value in assay [1] is “A (a compound having 10 or more and less than 20 is denoted as A)”. Also, the IC50 in assay [2] was determined as 16.9 nM. Moreover, the “NRAS /KRAS” value in assay [3] was “AA (a compound having 20 or more is denoted as AA)”.

As to `CC[C@H](C)[C@@H]1NC(=O)[C@H](CC2CC2)N(C)C(=O)C[C@@H](C(=O)N(C)C)N(C)C(=O)[C@H](C2CCCC2)N(C)C(=O)C2(CCCC2)NC(=O)[C@@H]2CC(F)(F)CN2C(=O)[C@H](CCc2cc(F)c(C(F)(F)F)c(F)c2)NC(=O)CN(C)C(=O)[C@H](Cc2ccc(C(F)(F)F)cc2)N2CC/C=C\C[C@@H](C2=O)N(C)C(=O)CN(C)C1=O` [PP1513], the “HRAS /KRAS” value in assay [1] was “A (a compound having 10 or more and less than 20 is denoted as A)”. In assay [2], this compound displayed an IC50 of 8.3 nM. Further, the “NRAS /KRAS” value in assay [3] is “A (a compound having 10 or more and less than 20 is denoted as A)”.

As for `CCO[C@@H]1C[C@H]2C(=O)NC3(CCC3)C(=O)N(C)[C@@H](C(CC)CC)C(=O)N(C)[C@H](C(=O)N(C)C)CC(=O)N(C)[C@@H](CC3CCCC3)C(=O)N[C@@H]([C@@H](C)CC)C(=O)N(C)CC(=O)N(C)[C@H]3C/C=C\CCN(C3=O)[C@@H](Cc3ccc(F)cc3C)C(=O)N(C)CC(=O)N[C@@H](CCc3cc(F)c(C(F)(F)F)c(F)c3)C(=O)N2C1` [PP1516], the “HRAS /KRAS” value in assay [1] is “B (a compound having 3 or more and less than 10 is denoted as B)”. In assay [2], this compound yielded a half-maximal inhibitory concentration (IC50) of 45.7 nM. The “NRAS /KRAS” value in assay [3] was “A (a compound having 10 or more and less than 20 is denoted as A)”.

For `CCO[C@@H]1C[C@H]2C(=O)NC3(CCC3)C(=O)N(C)[C@@H](C(CC)CC)C(=O)N(C)[C@H](C(=O)N(C)C)CC(=O)N(C)[C@@H](CC3CCCC3)C(=O)N[C@@H]([C@@H](C)CC)C(=O)N(C)CC(=O)N(C)[C@H]3C/C=C\CCN(C3=O)[C@@H](Cc3ccc(F)cc3)C(=O)N(C)CC(=O)N[C@@H](CCc3cc(F)c(C(F)(F)F)c(F)c3)C(=O)N2C1` [PP1517], in assay [1], the “HRAS /KRAS” value is “A (a compound having 10 or more and less than 20 is denoted as A)”. For the same compound, the IC50 in assay [2] amounted to 33.6 nM. For the same compound, the “NRAS /KRAS” value in assay [3] was “A (a compound having 10 or more and less than 20 is denoted as A)”.

For the compound `CCO[C@@H]1C[C@H]2C(=O)NC3(CCC3)C(=O)N(C)[C@@H](C(CC)CC)C(=O)N(C)[C@H](C(=O)N(C)C)CC(=O)N(C)[C@@H](CC(C)C)C(=O)N[C@@H]([C@@H](C)CC)C(=O)N(C)CC(=O)N(C)[C@H]3C/C=C\CCN(C3=O)[C@@H](Cc3ccc(F)cc3C)C(=O)N(C)CC(=O)N[C@@H](CCc3cc(F)c(C(F)(F)F)c(F)c3)C(=O)N2C1` [PP1518], the “HRAS /KRAS” value in assay [1] is “B (a compound having 3 or more and less than 10 is denoted as B)”. For the same compound, in assay [2], inhibition was half-maximal at 49.4 nM (IC50). Further, in assay [3], the “NRAS /KRAS” value was “A (a compound having 10 or more and less than 20 is denoted as A)”.

Consider `CCO[C@@H]1C[C@H]2C(=O)NC3(CCC3)C(=O)N(C)[C@@H](C(CC)CC)C(=O)N(C)[C@H](C(=O)N(C)C)CC(=O)N(C)[C@@H](CC(C)C)C(=O)N[C@@H]([C@@H](C)CC)C(=O)N(C)CC(=O)N(C)[C@H]3C/C=C\CCN(C3=O)[C@@H](Cc3ccc(F)cc3)C(=O)N(C)CC(=O)N[C@@H](CCc3cc(F)c(C(F)(F)F)c(F)c3)C(=O)N2C1` [PP1519], for which the “HRAS /KRAS” value in assay [1] is “A (a compound having 10 or more and less than 20 is denoted as A)”. It took 78.2 nM to reach half-maximal inhibition in assay [2] (IC50). In assay [3], the “NRAS /KRAS” value is “A (a compound having 10 or more and less than 20 is denoted as A)”.

With `CCO[C@@H]1C[C@H]2C(=O)NC3(CCC3)C(=O)N(C)[C@@H](C(CC)CC)C(=O)N(C)[C@H](C)CC(=O)N(C)[C@@H](CC3CC3)C(=O)N[C@@H]([C@@H](C)CC)C(=O)N(C)CC(=O)N(C)[C@H]3C/C=C\CCN(C3=O)[C@@H](Cc3ccc(F)cc3)C(=O)N(C)CC(=O)N[C@@H](CCc3cc(F)c(C(F)(F)F)c(F)c3)C(=O)N2C1` [PP1521], the “HRAS /KRAS” value in assay [1] was “B (a compound having 3 or more and less than 10 is denoted as B)”. In addition, in assay [2], inhibition was half-maximal at 173 nM (IC50). In addition, in assay [3], the “NRAS /KRAS” value is “A (a compound having 10 or more and less than 20 is denoted as A)”.

In the case of `CCO[C@@H]1C[C@H]2C(=O)NC3(CCC3)C(=O)N(C)[C@@H](C(CC)CC)C(=O)N(C)[C@H](C)CC(=O)N(C)[C@@H](CC3CCCC3)C(=O)N[C@@H]([C@@H](C)CC)C(=O)N(C)CC(=O)N(C)[C@H]3C/C=C\CCN(C3=O)[C@@H](Cc3ccc(F)cc3C)C(=O)N(C)CC(=O)N[C@@H](CCc3cc(F)c(C(F)(F)F)c(F)c3)C(=O)N2C1` [PP1522], in assay [1], the “HRAS /KRAS” value is “A (a compound having 10 or more and less than 20 is denoted as A)”. For the same compound, the IC50 in assay [2] amounted to 567 nM. For the same compound, the “NRAS /KRAS” value in assay [3] is “A (a compound having 10 or more and less than 20 is denoted as A)”.

`CCO[C@@H]1C[C@H]2C(=O)NC3(CCC3)C(=O)N(C)[C@@H](C(CC)CC)C(=O)N(C)[C@H](C(=O)N3CCOCC3)CC(=O)N(C)[C@@H](CC3CC3)C(=O)N[C@@H]([C@@H](C)CC)C(=O)N(C)CC(=O)N(C)[C@H]3C/C=C\CCN(C3=O)[C@@H](Cc3ccc(F)cc3C)C(=O)N(C)CC(=O)N[C@@H](CCc3cc(F)c(C(F)(F)F)c(F)c3)C(=O)N2C1` [PP1526]: in assay [1], the “HRAS /KRAS” value was “A (a compound having 10 or more and less than 20 is denoted as A)”. This compound had an IC50 in assay [2] of 118 nM. Moreover, in assay [3], the “NRAS /KRAS” value was “A (a compound having 10 or more and less than 20 is denoted as A)”.

`CCO[C@@H]1C[C@H]2C(=O)NC3(CCC3)C(=O)N(C)[C@@H](C3CCCC3)C(=O)N(C)[C@H](C(=O)N(C)C)CC(=O)N(C)[C@@H](CC3CCCC3)C(=O)N[C@@H]([C@@H](C)CC)C(=O)N(C)CC(=O)N(C)[C@H]3C/C=C\CCN(C3=O)[C@@H](Cc3ccc(F)cc3)C(=O)N(C)CC(=O)N[C@@H](CCc3cc(F)c(C(F)(F)F)c(F)c3)C(=O)N2C1` [PP1531]: the “HRAS /KRAS” value in assay [1] is “B (a compound having 3 or more and less than 10 is denoted as B)”. Moreover, the IC50 in assay [2] turned out to be 13.9 nM. Moreover, the “NRAS /KRAS” value in assay [3] is “A (a compound having 10 or more and less than 20 is denoted as A)”.

Consider `CCO[C@@H]1C[C@H]2C(=O)NC3(CCC3)C(=O)N(C)[C@@H](C3CCCC3)C(=O)N(C)[C@H](C(=O)N(C)C)CC(=O)N(C)[C@@H](CC(C)C)C(=O)N[C@@H]([C@@H](C)CC)C(=O)N(C)CC(=O)N(C)[C@H]3C/C=C\CCN(C3=O)[C@@H](Cc3ccc(F)cc3C)C(=O)N(C)CC(=O)N[C@@H](CCc3cc(F)c(C(F)(F)F)c(F)c3)C(=O)N2C1` [PP1532], for which the “HRAS /KRAS” value in assay [1] was “B (a compound having 3 or more and less than 10 is denoted as B)”. This compound had a half-maximal inhibitory concentration (IC50) in assay [2] of 13.4 nM. Besides, the “NRAS /KRAS” value in assay [3] is “A (a compound having 10 or more and less than 20 is denoted as A)”.

Usually IC50 stands for the midpoint of a concentration-inhibition curve. Read a high IC50 as lower potency.
